Laboratory results from patent publication US5034512A, “Branched backbone renin inhibitors” (Warner-Lambert Company, priority 1988, dated 1991).

What follows are molecules tested against T1, renin (Homo sapiens, UniProt P00797) (assay: in vitro renin inhibitory activity, radioimmunoassay for angiotensin I). Conditions: 10^-6 M test compound; renin incubated two hours at 37° with angiotensinogen.
T1 sequence (P00797 67-406): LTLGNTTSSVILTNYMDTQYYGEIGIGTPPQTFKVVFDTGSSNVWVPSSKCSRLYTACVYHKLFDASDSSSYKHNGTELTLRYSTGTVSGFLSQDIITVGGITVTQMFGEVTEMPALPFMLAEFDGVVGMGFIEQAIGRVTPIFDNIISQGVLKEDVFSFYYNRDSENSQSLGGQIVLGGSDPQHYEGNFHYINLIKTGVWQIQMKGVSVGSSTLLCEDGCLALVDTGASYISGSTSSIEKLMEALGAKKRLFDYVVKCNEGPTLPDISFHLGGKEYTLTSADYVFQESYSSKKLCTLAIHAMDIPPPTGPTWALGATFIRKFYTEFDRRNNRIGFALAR
Format: biochemical
Method: The effectiveness of the aforementioned compound is determined by a test for in vitro renin inhibitory activity. This activity is determined by a standard radioimmunoassay for angiotensin I. In this assay the enzyme, renin, incubated for two hours at 37° in the presence of a substrate, angiotensinogen, generates the product, angiotensin I. Test compounds are added to the incubation mixture. Relative activity is reported as the IC50, which is the molar concentration of test compound causing a 50% inhibition of the renin activity. Relative activity is also reported as % inhibition at 10^-6 M,

Compound | inhibition at 1 µM
CNC(=O)CCNC(=O)C[C@H](NC(=O)C(Cc1cccc2ccccc12)Cc1cccc2ccccc12)C(=O)N[C@@H](CC1CCCCC1)[C@@H](O)CC(=O)N[C@@H](CC(C)C)C(=O)NCc1ccccc1 [Example 6] | 47%

Same assay, conditions: renin incubated two hours at 37° with angiotensinogen; read-out: IC50 (molar concentration of test compound causing a 50% inhibition of the renin activity)

Compound | IC50
CC[C@H](C)CNC(=O)C[C@H](O)[C@H](CC(C)C)NC(=O)[C@H](CCC(=O)NCC(=S)NC)NC(=O)C(Cc1cccc2ccccc12)Cc1cccc2ccccc12 [Example 1] | 9 µM
CC[C@H](C)CNC(=O)C[C@H](O)[C@H](CC(C)C)NC(=O)[C@H](CCC(=O)NCC(=O)NC)NC(=O)C(Cc1cccc2ccccc12)Cc1cccc2ccccc12 [Example 2] | 15 µM
COC(=O)[C@H](CCS(C)(=O)=O)NC(=O)C[C@H](NC(=O)C(Cc1cccc2ccccc12)Cc1cccc2ccccc12)C(=O)N[C@@H](CC1CCCCC1)[C@@H](O)CC(=O)N[C@@H](CC(C)C)C(=O)NCc1ccccc1 [Example 3] | 3.5 µM
CNC(=S)CNC(=O)C[C@H](NC(=O)C(Cc1cccc2ccccc12)Cc1cccc2ccccc12)C(=O)N[C@@H](CC1CCCCC1)[C@@H](O)CC(=O)N[C@@H](CC(C)C)C(=O)NCc1ccccc1 [Example 5] | 0.24 µM
CC[C@H](C)CNC(=O)C[C@H](O)[C@H](CC(C)C)NC(=O)[C@H](CCCCNC(=O)CNC(=O)OCc1ccccc1)NC(=O)C(Cc1cccc2ccccc12)Cc1cccc2ccccc12 [Example 8] | 0.083 µM
CC[C@H](C)CNC(=O)C[C@H](O)[C@H](CC(C)C)NC(=O)[C@H](CCCCNC(=O)CN)NC(=O)C(Cc1cccc2ccccc12)Cc1cccc2ccccc12 [Example 9] | 0.71 µM
CC[C@H](C)CNC(=O)C[C@H](O)[C@H](CC(C)C)NC(=O)[C@H](CCCCNC(=O)CNC(=S)NC)NC(=O)C(Cc1cccc2ccccc12)Cc1cccc2ccccc12 [Example 10] | 0.08 µM
CC[C@H](C)CNC(=O)C[C@H](O)[C@H](CC1CCCCC1)NC(=O)[C@H](CCCCNC(=O)CNC(C)=O)NC(=O)C(Cc1cccc2ccccc12)Cc1cccc2ccccc12 [Example 12] | 0.027 µM
CC[C@H](C)CNC(=O)C[C@H](O)[C@H](CC(C)C)NC(=O)[C@H](CCCCNC(=O)[C@@H]1CSCN1C(C)=O)NC(=O)C(Cc1cccc2ccccc12)Cc1cccc2ccccc12 [Example 13] | 1.1 µM
CC[C@H](C)CNC(=O)C[C@H](O)[C@H](CC(C)C)NC(=O)[C@H](CCCCNC(=O)[C@@H]1CS(=O)(=O)CN1C(C)=O)NC(=O)C(Cc1cccc2ccccc12)Cc1cccc2ccccc12 [Example 14] | 0.47 µM
CC[C@H](C)CNC(=O)C[C@H](O)[C@H](CC(C)C)NC(=O)[C@H](CCCCNC(=O)[C@@H]1CCC(=O)N1)NC(=O)C(Cc1cccc2ccccc12)Cc1cccc2ccccc12 [Example 15] | 0.043 µM
CC[C@H](C)CNC(=O)C[C@H](O)[C@H](CC(C)C)NC(=O)[C@H](CCCCNC(=O)CCNC(C)=O)NC(=O)C(Cc1cccc2ccccc12)Cc1cccc2ccccc12 [Example 16] | 0.025 µM
CC[C@H](C)CNC(=O)C[C@H](O)[C@H](CC(C)C)NC(=O)[C@H](CCCCNC(=O)CNC(=O)C(C)C)NC(=O)C(Cc1cccc2ccccc12)Cc1cccc2ccccc12 [Example 17] | 0.074 µM
CC[C@H](C)CNC(=O)C[C@H](O)[C@H](CC(C)C)NC(=O)[C@H](CCCCNC(=O)CNC(=O)C(F)F)NC(=O)C(Cc1cccc2ccccc12)Cc1cccc2ccccc12 [Example 18] | 0.062 µM
CC[C@H](C)CNC(=O)C[C@H](O)[C@H](CC(C)C)NC(=O)[C@H](CCCCNC(=O)CNC(N)=N[N+](=O)[O-])NC(=O)C(Cc1cccc2ccccc12)Cc1cccc2ccccc12 [Example 19] | 0.008 µM
CC[C@H](C)CNC(=O)C[C@H](O)[C@H](CC(C)C)NC(=O)[C@H](CCCCNC(=O)CNC(=NC#N)NC)NC(=O)C(Cc1cccc2ccccc12)Cc1cccc2ccccc12 [Example 20] | 0.03 µM
